test system: HCV pseudoparticles (genotype 1a HCV E1 and E2 envelope, H77C isolate); assay: microbe, parasite or virus in culture; type: cell-based; details: Hepatitis C virus, Huh-7, 48 h, HCV pseudoparticle infection of Huh7 cells, luciferase 2 days after infection; average of duplicates

| SMILES | EC50 [nM] |
| --- | --- |
| COC(=O)[C@H](CCNC(=O)C(=O)Nc1cc(F)c(F)c(F)c1)NC(=O)c1ccc(Nc2nc(NC3(c4ccc(Cl)cc4)CC3)nc(OCC(F)(F)F)n2)cc1 [Compound 1504] | < 2.54 |
| COC(=O)[C@H](CNC(=O)C(=O)NC1CCC(C)CC1)NC(=O)c1ccc(Nc2nc(NC3(c4ccc(Cl)cc4)CC3)nc(OCC(F)(F)F)n2)cc1 (stereo partly shown) [Compound 1064] | 1.89 |
| COC(=O)[C@H](CCNC(=O)C(=O)Nc1cccc(-c2ccccc2)c1)NC(=O)c1ccc(Nc2nc(NC3(c4ccc(Cl)cc4)CC3)nc(OCC(F)(F)F)n2)cc1 [Compound 1522] | 0.1 |

same assay, conditions: Hepatitis C virus, Huh-7, 48 h, HCV pseudoparticles (genotype 1a, H77C) in Huh7 cells; average of duplicate; luciferase 2 days after infection

| SMILES | EC50 [nM] |
| --- | --- |
| CC(C)(CNC(=O)C(=O)Nc1ccc(OC(F)F)cc1)CNC(=O)c1ccc(Nc2nc(NC3(c4ccc(Cl)cc4)CC3)nc(OCC(F)(F)F)n2)cc1F [Compound 3562] | 0.018 |
| COC(=O)[C@H](CCNC(=O)C(=O)Nc1ccc(-c2cc[nH]n2)cc1)NC(=O)c1ccc(Nc2nc(NC3(c4ccc(Cl)cc4)CC3)nc(OCC(F)(F)F)n2)cc1 [Compound 3310] | 2.15 |
| N#Cc1ccc(-c2ccc(NC(=O)C(=O)NC/C(=N/C(=O)c3ccc(Nc4nc(NC5(c6ccc(Cl)cc6)CC5)nc(OCC(F)(F)F)n4)cc3)C(=O)O)cc2)cc1 [Compound 3170] | 0.63 |

same assay, conditions: Hepatitis C virus, Huh-7, 48 h, HCV pseudoparticles, Huh7 cells, luciferase 2 days after infection; average of duplicates

| SMILES | EC50 [nM] |
| --- | --- |
| COC(=O)[C@H](CNC(=O)C(=O)Nc1cccc(-c2ncc[nH]2)c1)NC(=O)c1ccc(Nc2nc(NC3(c4ccc(Cl)cc4)CC3)nc(OCC(F)(F)F)n2)cc1 [Compound 3709] | 0.71 |
| CC(C)(CNC(=O)C(N)=O)CNC(=O)c1c(F)cc(Nc2nc(NC3(c4ccc(Cl)cc4)CC3)nc(OCC(F)(F)F)n2)cc1F [Compound 3812] | 0.5 |

same assay, conditions: Hepatitis C virus, Huh-7, 48 h, read-out: Activity (EC50 class), HCV pseudoparticle infection of Huh7 cells, luciferase 2 days after infection; EC50 expressed as class A/B

| SMILES | EC50 [nM] |
| --- | --- |
| O=C(NCC[C@H](NC(=O)c1ccc(Nc2nc(NC3(c4ccc(Cl)cc4)CC3)nc(OCC(F)(F)F)n2)cc1)C(=O)O)C(=O)NCC1CCCc2ccccc21 (stereo partly shown) [Compound 1343] | 0.01 to 10 |
| O=C(NCC1CCOCC1)C(=O)NC[C@H](NC(=O)c1ccc(Nc2nc(NC3(c4ccc(Cl)cc4)CC3)nc(OCC(F)(F)F)n2)cc1)C(=O)O [Compound 1477] | 0.01 to 10 |
| CC(C)(CNC(=O)C(=O)Nc1ccc(Cl)cc1)CNC(=O)c1ccc(Nc2nc(NC3(c4ccc(Cl)cc4)CC3)nc(OCC(F)(F)F)n2)cc1 [Compound 1559] | 0.01 to 10 |
| COC(=O)[C@H](CCNC(=O)C(=O)Nc1cc(F)c(F)c(F)c1)NC(=O)c1ccc(Nc2nc(NC3(c4ccc(Cl)cc4)CC3)nc(OCC(F)(F)F)n2)cc1 [Compound 1504] | 0.01 to 10 |
| COC(=O)[C@H](CNC(=O)C(=O)Nc1cccnc1)NC(=O)c1ccc(Nc2nc(NC3(c4ccc(Cl)cc4)CC3)nc(OCC(F)(F)F)n2)cc1 [Compound 1259] | 0.01 to 10 |
| CC(C)(CNC(=O)C(=O)Nc1ccc(-c2ccc(F)cc2)cc1)CNC(=O)c1ccc(Nc2nc(NC3(c4ccc(Cl)cc4)CC3)nc(OCC(F)(F)F)n2)cc1 [Compound 1569] | 0.01 to 10 |
| CCC(CC)NC(=O)C(=O)NC[C@@H](NC(=O)c1ccc(Nc2nc(NC3(c4ccc(Cl)cc4)CC3)nc(OCC(F)(F)F)n2)cc1)C(=O)OC [Compound 1063] | 0.01 to 10 |
| Cc1ccc(NC(=O)C(=O)NCC(C)(C)CNC(=O)c2ccc(Nc3nc(NC4(c5ccc(Cl)cc5)CC4)nc(OCC(F)(F)F)n3)cc2)cc1Cl [Compound 1541] | 0.01 to 10 |
| O=C(NCC[C@H](NC(=O)c1ccc(Nc2nc(NC3(c4ccc(Cl)cc4)CC3)nc(OCC(F)(F)F)n2)cc1)C(=O)O)C(=O)NC1Cc2ccccc2C1 [Compound 1335] | 0.01 to 10 |
| CC(C)(CNC(=O)C(=O)Nc1ccccc1-c1ccccc1)CNC(=O)c1ccc(Nc2nc(NC3(c4ccc(Cl)cc4)CC3)nc(OCC(F)(F)F)n2)cc1 [Compound 1572] | 0.01 to 10 |
| COC(=O)[C@H](CNC(=O)C(=O)NC1CCC(C)CC1)NC(=O)c1ccc(Nc2nc(NC3(c4ccc(Cl)cc4)CC3)nc(OCC(F)(F)F)n2)cc1 (stereo partly shown) [Compound 1064] | 0.01 to 10 |
| COC(=O)[C@H](CNC(=O)C(=O)NCC1CC1)NC(=O)c1ccc(Nc2nc(NC3(c4ccc(Cl)cc4)CC3)nc(OCC(F)(F)F)n2)cc1 [Compound 1461] | 0.01 to 10 |
| COC(=O)[C@H](CCNC(=O)C(=O)NCc1ccc(OC)cc1)NC(=O)c1ccc(Nc2nc(NC3(c4ccc(Cl)cc4)CC3)nc(OCC(F)(F)F)n2)cc1 [Compound 1146] | 0.01 to 10 |
| O=C(NC[C@H]1CCC[C@H]1NC(=O)c1ccc(Nc2nc(NC3(c4ccc(Cl)cc4)CC3)nc(OCC(F)(F)F)n2)cc1)C(=O)Nc1ccc(F)cc1 [Compound 1474] | 0.01 to 10 |
| O=C(NCC[C@H](NC(=O)c1ccc(Nc2nc(NC3(c4ccc(Cl)cc4)CC3)nc(OCC(F)(F)F)n2)cc1)C(=O)O)C(=O)Nc1ccc(F)cc1 [Compound 1272] | 0.01 to 10 |
| COC(=O)[C@H](CNC(=O)C(=O)NCCc1ccncc1)NC(=O)c1ccc(Nc2nc(NC3(c4ccc(Cl)cc4)CC3)nc(OCC(F)(F)F)n2)cc1 [Compound 1288] | 0.01 to 10 |
| COC(=O)[C@H](CCNC(=O)C(=O)NCCc1cccc(OC)c1)NC(=O)c1ccc(Nc2nc(NC3(c4ccc(Cl)cc4)CC3)nc(OCC(F)(F)F)n2)cc1 [Compound 1309] | 0.01 to 10 |
| COC(=O)[C@H](CNC(=O)C(=O)NC1CCCC(O)C1)NC(=O)c1ccc(Nc2nc(NC3(c4ccc(Cl)cc4)CC3)nc(OCC(F)(F)F)n2)cc1 (stereo partly shown) [Compound 1056] | 0.01 to 10 |
| COC(=O)[C@H](CCNC(=O)C(=O)Nc1cccc(-c2ccccc2)c1)NC(=O)c1ccc(Nc2nc(NC3(c4ccc(Cl)cc4)CC3)nc(OCC(F)(F)F)n2)cc1 [Compound 1522] | 0.01 to 10 |
| CN(C(=O)C(=O)NCC(C)(C)CNC(=O)c1ccc(Nc2nc(NC3(c4ccc(Cl)cc4)CC3)nc(OCC(F)(F)F)n2)cc1)c1ccc(F)cc1 [Compound 1599] | 0.01 to 10 |
| O=C(NCC[C@H](NC(=O)c1ccc(Nc2nc(NC3(c4ccc(Cl)cc4)CC3)nc(OCC(F)(F)F)n2)cc1)C(=O)O)C(=O)NCC1CC1c1cccc2c1OCO2 (stereo partly shown) [Compound 1446] | 0.01 to 10 |
| COC(=O)[C@H](CCNC(=O)C(=O)Nn1cnnc1)NC(=O)c1ccc(Nc2nc(NC3(c4ccc(Cl)cc4)CC3)nc(OCC(F)(F)F)n2)cc1 [Compound 1219] | 10 to 1000 |

same assay, conditions: Hepatitis C virus, Huh-7, 48 h, read-out: Activity (EC50 class), HCV pseudoparticles, Huh7 cells, luciferase 2 days after infection; average of duplicates

| SMILES | EC50 [nM] |
| --- | --- |
| O=C(NCC[C@H](NC(=O)c1ccc(Nc2nc(NC3(c4ccc(Cl)cc4)CC3)nc(OCC(F)(F)F)n2)cc1)C(=O)O)C(=O)Nc1cccc(-n2cnnc2)c1 [Compound 3653] | 0.01 to 10 |
| O=C(NC[C@H](NC(=O)c1ccc(Nc2nc(NC3(c4ccc(Cl)cc4)CC3)nc(OCC(F)(F)F)n2)cc1)C(=O)O)C(=O)Nc1cccc(-c2ccncc2)c1 [Compound 3768] | 0.01 to 10 |
| Cc1ccc(NC(=O)C(=O)NCC(C)(C)CNC(=O)c2ccc(Nc3nc(NC4(c5ccc(Cl)cc5)CC4)nc(OCc4ccc(C(F)(F)F)cc4)n3)cc2)cc1 [Compound 3851] | 0.01 to 10 |
| Cc1nc(-c2cccc(NC(=O)C(=O)NC[C@H](NC(=O)c3ccc(Nc4nc(NC5(c6ccc(Cl)cc6)CC5)nc(OCC(F)(F)F)n4)cc3)C(=O)O)c2)cs1 [Compound 3773] | 0.01 to 10 |
| COC(=O)[C@H](CNC(=O)C(=O)Nc1cccc(-c2ccncc2)c1)NC(=O)c1ccc(Nc2nc(NC3(c4ccc(Cl)cc4)CC3)nc(OCC(F)(F)F)n2)cc1 [Compound 3712] | 0.01 to 10 |
| COC(=O)[C@H](CNC(=O)C(=O)Nc1cccc(-c2ncc[nH]2)c1)NC(=O)c1ccc(Nc2nc(NC3(c4ccc(Cl)cc4)CC3)nc(OCC(F)(F)F)n2)cc1 [Compound 3709] | 0.01 to 10 |
| COC(=O)[C@H](CNC(=O)C(=O)Nc1cccc(C(C)C)c1)NC(=O)c1ccc(Nc2nc(NC3(c4ccc(Cl)cc4)CC3)nc(OCC(F)(F)F)n2)cc1 [Compound 3702] | 0.01 to 10 |
| Cc1cc(NC(=O)C(=O)NCC(C)(C)CNC(=O)c2ccc(Nc3nc(NC4(c5ccc(Cl)cc5)CC4)nc(OCC(F)(F)F)n3)cc2)ccc1Cl [Compound 3798] | 0.01 to 10 |
| CC(C)(CNC(=O)C(N)=O)CNC(=O)c1c(F)cc(Nc2nc(NC3(c4ccc(Cl)cc4)CC3)nc(OCC(F)(F)F)n2)cc1F [Compound 3812] | 0.01 to 10 |

same assay, conditions: Hepatitis C virus, Huh-7, read-out: Activity (EC50 class), HCV pseudoparticles (genotype 1a, H77C) in Huh7 cells; EC50 expressed as class A/B

| SMILES | EC50 [nM] |
| --- | --- |
| NS(=O)(=O)c1ccc(NC(=O)C(=O)NC/C(=N/C(=O)c2ccc(Nc3nc(NC4(c5ccc(Cl)cc5)CC4)nc(OCC(F)(F)F)n3)cc2)C(=O)O)cc1 [Compound 3155] | 0.01 to 10 |
| Cc1nnnn1-c1cc(Nc2nc(NC3(c4ccc(Cl)cc4)CC3)nc(OCC(F)(F)F)n2)ccc1C(=O)NCC(C)(C)CNC(=O)C(=O)Nc1ccc(F)cc1 [Compound 3552] | 0.01 to 10 |
| CC(C)(CNC(=O)C(=O)Nc1cccnc1-n1cccn1)CNC(=O)c1ccc(Nc2nc(NC3(c4ccc(Cl)cc4)CC3)nc(OCC(F)(F)F)n2)cc1 [Compound 3256] | 0.01 to 10 |
| CC(C)(C)c1ccc(NC(=O)C(=O)NCC[C@H](NC(=O)c2ccc(Nc3nc(NC4(c5ccc(Cl)cc5)CC4)nc(OCC(F)(F)F)n3)cc2)C(=O)O)cc1 [Compound 3549] | 0.01 to 10 |
| Cc1cc(NC(=O)C(=O)NCC(C)(C)CNC(=O)c2ccc(Nc3nc(NC4(c5ccc(Cl)cc5)CC4)nc(OCC(F)(F)F)n3)cc2)ccc1F [Compound 3060] | 0.01 to 10 |
| CC(C)(CNC(=O)C(=O)Nc1ccc(OC(F)F)cc1)CNC(=O)c1ccc(Nc2nc(NC3(c4ccc(Cl)cc4)CC3)nc(OCC(F)(F)F)n2)cc1F [Compound 3562] | 0.01 to 10 |
| CC(C)(CNC(=O)C(=O)Nc1ccc2cn[nH]c2c1)CNC(=O)c1ccc(Nc2nc(NC3(c4ccc(Cl)cc4)CC3)nc(OCC(F)(F)F)n2)cc1 [Compound 3022] | 0.01 to 10 |
| COC(=O)[C@H](CCNC(=O)C(=O)Nc1ccc(-c2cc[nH]n2)cc1)NC(=O)c1ccc(Nc2nc(NC3(c4ccc(Cl)cc4)CC3)nc(OCC(F)(F)F)n2)cc1 [Compound 3310] | 0.01 to 10 |
| CNC(=O)CCc1ccc(NC(=O)C(=O)NCC(C)(C)CNC(=O)c2ccc(Nc3nc(NC4(c5ccc(Cl)cc5)CC4)nc(OCC(F)(F)F)n3)cc2)cc1 [Compound 3025] | 0.01 to 10 |
| CC(C)(CNC(=O)C(=O)NCc1cccc(C(=N)N)c1)CNC(=O)c1ccc(Nc2nc(NC3(c4ccc(Cl)cc4)CC3)nc(OCC(F)(F)F)n2)cc1 [Compound 3039] | 0.01 to 10 |
| CC(C)(CNC(=O)C(=O)Nc1ccc(OC(F)(F)F)cc1)CNC(=O)c1ccc(Nc2nc(NC3(c4ccc(Cl)cc4)CC3)nc(OCC(F)(F)F)n2)cc1 [Compound 3145] | 0.01 to 10 |
| O=C(NCCC(NC(=O)c1ccc(Nc2nc(NC3(c4ccc(Cl)cc4)CC3)nc(OCC(F)(F)F)n2)cc1)C(=O)O)C(=O)Nc1ccc(OCCc2ncccn2)cc1 (stereo not shown) [Compound 3536] | 0.01 to 10 |
| O=C(NCCC(NC(=O)c1ccc(Nc2nc(NC3(c4ccc(Cl)cc4)CC3)nc(OCC(F)(F)F)n2)cc1)C(=O)O)C(=O)Nc1ccc(Oc2ccc(F)cc2)cc1 (stereo not shown) [Compound 3522] | 10 to 1000 |
| COC(=O)[C@H](CNC(=O)C(=O)Nc1ccc(-n2cccn2)cc1)NC(=O)c1ccc(Nc2nc(NC3(c4ccc(Cl)cc4)CC3)nc(OCC(F)(F)F)n2)cc1 [Compound 3108] | 0.01 to 10 |
| N#Cc1ccc(-c2ccc(NC(=O)C(=O)NC/C(=N/C(=O)c3ccc(Nc4nc(NC5(c6ccc(Cl)cc6)CC5)nc(OCC(F)(F)F)n4)cc3)C(=O)O)cc2)cc1 [Compound 3170] | 0.01 to 10 |
| COc1ccc(NC(=O)C(=O)NCC(C)(C)CNC(=O)c2ccc(Nc3nc(NC4(c5ccc(Cl)cc5)CC4)nc(OCC(F)(F)F)n3)cc2F)c(OC)c1 [Compound 3560] | 0.01 to 10 |

From US8916702B2 (priority 2012, dated 2014)
